Experimental data taken from US20240016831A1 (priority 2020, published 2024).

Type: physicochemical
Conditions: pH 3

Row | Compound | amounts of nitric oxide generated (cumulative NO evolved)
1 | OC[C@@H](O)[C@@H](O)[C@H](O)[C@@H](O)CO [sorbitol] | markedly greater amounts of nitric oxide
2 | OC[C@@H](O)[C@@H](O)[C@H](O)[C@H](O)CO [mannitol, D-mannitol] | markedly greater amounts of nitric oxide
